{
  "source": "patent US9885086B2",
  "about": "“Phospholipase C gamma 2 and resistance associated mutations” (Pharmacyclics LLC, priority 2014, dated 2018)",
  "tested_on": "DT40 cells stably expressing mutated PLCγ2 (L845F)",
  "assay": "Calcium flux assay in DT40 cells after anti-IgM stimulation",
  "format": "cell-based, chicken",
  "details": "L845F PLCγ2 mutant DT40 cells, 1 μM Ibrutinib 30 min",
  "experimental": "The intracellular calcium level was detected by Calcium Assay Kit (BD Biosciences, San Diego, Calif.) and measured by Beckman Coulter DTX880 microplate reader. After 195 seconds of acquisition to determine the baseline, 3 μg/ml anti-chicken IgM (SouthernBiotech, Birmingham, Ala.) was added to stimulate the cells.\nWT PLCγ2 and L845F PLCγ2 were stably transfected into 293 cells and DT40 cells which lack endogenous PLCγ2 expression (FIG. 5). Calcium flux was examined in DT40 cells after anti-IgM stimulation in the presence of WT or mutant PLCγ2.",
  "data": [
    {"smiles": "C=CC(=O)N1CCC[C@@H](n2nc(-c3ccc(Oc4ccccc4)cc3)c3c(N)ncnc32)C1", "note": "[ibrutinib]", "values": [
      {"measurement": "inhibition of IgM-mediated calcium flux", "result": "not inhibited"}
    ]}
  ]
}
